Results as given in ChEMBL document CHEMBL3352494, “New guaiane sesquiterpenes from Artemisia rupestris and their inhibitory effects on nitric oxide production” (Bioorg Med Chem Lett, 2014).

Tests used:
RAW264.7 [1] = experiment: Cytotoxicity against mouse RAW264.7 cells at 0.01 to 100 uM after 24 hrs by MTT assay; assay type: cell-based; conditions: raw264.7, 24 h
RAW264.7 [2] = experiment: Inhibition of NO production in LPS-stimulated mouse RAW264.7 cells pre-incubated for 2 hrs before LPS stimulation for 24 hrs by Griess assay method; assay type: functional, cell-based

| SMILES | IC50 (RAW264.7 [2]) | Activity (RAW264.7 [1]) |
| --- | --- | --- |
| COC(=O)[C@@]1(O)C[C@@H](O)[C@@H](OC(=O)/C=C/c2ccc(O)c(O)c2)[C@H](OC(=O)/C=C/c2ccc(O)c(O)c2)C1 | 23.3 µM | Non-toxic |
| C=C(C(=O)O)[C@@H]1CC[C@](C)(O)[C@@H]2CC(=O)C(C)=C2C1 | 0.47 µM | Non-toxic |
| COc1ccc(-c2cc(=O)c3c(O)cc(O[C@@H]4O[C@H](CO[C@@H]5O[C@@H](C)[C@H](O)[C@@H](O)[C@H]5O)[C@@H](O)[C@H](O)[C@H]4O)cc3o2)cc1 [ACACIIN] | 10 µM | Non-toxic |
| COc1ccc(Oc2cc(=O)c3c(O)cc(O[C@@H]4O[C@H](CO)[C@@H](O)[C@H](O)[C@H]4O)cc3o2)cc1 | 21.4 µM | Non-toxic |
| O=C(/C=C/c1ccc(O)c(O)c1)O[C@@H]1[C@H](O)C[C@](O)(C(=O)O)C[C@H]1OC(=O)/C=C/c1ccc(O)c(O)c1 (relative stereo) | 20.2 µM | Non-toxic |
| C=C(C(=O)O)[C@@H]1CC[C@H](C)[C@@H]2CC(=O)C(C)=C2C1 [PECHUELOIC ACID] | 3.04 µM | Non-toxic |
| COc1ccc(-c2cc(=O)c3c(O)cc(O[C@@H]4O[C@H](CO)[C@@H](O)[C@H](O)[C@H]4O)cc3o2)cc1OC | 9.51 µM | Non-toxic |
| COc1ccc(-c2cc(=O)c3c(O)c(OC)c(O)c(OC)c3o2)cc1 [NEVADENSIN] | 5.08 µM | Non-toxic |
| N=C(N)NN [PIMAGEDINE] | 0.23 µM | – |
| O=c1cc(-c2ccc(O)c(O)c2)oc2cc(O)cc(O)c12 [LUTEOLIN] | 0.21 µM | Non-toxic |

The remaining compounds from weak to strong by IC50 (RAW264.7 [2]), led by results:

| IC50 (RAW264.7 [2]) | SMILES | Activity (RAW264.7 [1]) |
| --- | --- | --- |
| 8.94 µM | COc1ccc(-c2cc(=O)c3c(O)cc(O[C@@H]4O[C@H](CO)[C@@H](O)[C@H](O)[C@H]4O)cc3o2)cc1 [TILIANINE] | Non-toxic |
| 8.3 µM | O=c1cc(-c2ccc(O)c(O)c2)oc2cc(O[C@@H]3O[C@H](CO)[C@@H](O)[C@H](O)[C@H]3O)cc(O)c12 [GALUTEOLIN] | Non-toxic |
| 4.75 µM | COc1cc(-c2oc3cc(OC)c(OC)c(O)c3c(=O)c2O)ccc1O | Non-toxic |
| 4.6 µM | C=C(C(=O)O[C@@H]1O[C@H](CO)[C@@H](O)[C@H](O)[C@H]1O)[C@@H]1CC[C@H](C)[C@@H]2CC(=O)C(C)=C2C1 | Non-toxic |
| 0.24 µM | COc1cc(-c2cc(=O)c3c(O)cc(O)cc3o2)ccc1O [CHRYSOERIOL] | – |
| 0.18 µM | C=C(C(=O)O)[C@@H]1CC[C@H](C)[C@]2(O)CC(=O)C(C)=C2C1 | Non-toxic |
